Source: the NIST ThermoML archive (doi:10.1016/j.fluid.2008.03.004)

Assay: xn = mol fraction of the nth substance listed
Settings: 101 kPa, Liquid; for speed of sound: Sing-around technique in a fixed-path interferometer

Cc1cccc(C)c1 [1,3-dimethylbenzene] + COC(C)(C)C
Settings | mass density, 288.15 K [kg/m3] | mass density, 290.65 K [kg/m3] | mass density, 293.15 K [kg/m3] | mass density, 295.65 K [kg/m3] | speed of sound, 288.15 K [m/s] | speed of sound, 290.65 K [m/s] | speed of sound, 293.15 K [m/s] | speed of sound, 295.65 K [m/s]
x2 = 0 | 868.459 | 866.318 | 864.177 | 862.035 | 1362.7 | 1352.1 | 1341.7 | 1331.3
x2 = 0.047 | 863.235 | 861.081 | 858.922 | 856.763 | 1350.6 | 1340.1 | 1329.7 | 1319
x2 = 0.115 | 855.522 | 853.297 | 851.118 | 848.935 | 1332.6 | 1322.5 | 1312 | 1301.5
x2 = 0.212 | 844.315 | 842.102 | 839.887 | 837.67 | 1306.8 | 1296.1 | 1285.5 | 1274.9
x2 = 0.304 | 833.627 | 831.375 | 829.126 | 826.872 | 1282.4 | 1271.5 | 1260.8 | 1250.1
x2 = 0.399 | 822.223 | 819.939 | 817.65 | 815.358 | 1256.5 | 1245.6 | 1234.7 | 1223.9
x2 = 0.5 | 809.928 | 807.6 | 805.27 | – | 1228.3 | 1217.4 | 1206.5 | 1195.6
x2 = 0.601 | 797.423 | 795.051 | 792.671 | – | 1200.9 | 1189.7 | 1178.5 | 1167.3
x2 = 0.651 | 791.063 | 788.663 | 786.26 | – | 1185.3 | 1173.8 | 1162.6 | 1151.5
x2 = 0.794 | 772.47 | 769.999 | 767.519 | – | 1143.4 | 1132 | 1120.7 | 1109.4
x2 = 0.898 | 758.81 | 756.279 | 753.738 | – | 1113.2 | 1101.5 | 1090 | 1078.5
x2 = 0.954 | 751.317 | 748.754 | 746.179 | – | 1097.5 | 1085.7 | 1074.1 | 1062.5
